# Active and inactive are the calls of the source. No cut-off for these calls is given here.
# How the values were obtained:
# [1] = Cytotoxicity against human CL1-5 cells after 72 hrs by alamar blue assay; assay type: functional, cell-based; settings: CL1-5, 72 h
# Mus musculus [2] = experiment: Toxicity in nu/nu nude mouse assessed as body weight loss at 150 mg/kg, iv administered as injection in Q2D x 5 schedule measured on day 18; assay type: organism-based; set-up: dose 150 mg/kg, route intravenous; settings: in vivo
# Nucleic Acid [3] = experiment: Binding affinity to DNA in human H1299 cells assessed as formation of DNA cross-links at 10 uM followed by irradiation by modified single cell gel electrophoresis comet assay; assay type: cell-based
# HCT-116 = experiment: Cytotoxicity against human HCT116 cells after 72 hrs by SRB assay; assay type: functional, cell-based; settings: HCT-116, 72 h
# PC-3 = experiment: Cytotoxicity against human PC3 cells after 72 hrs by alamar blue assay; assay type: functional, cell-based; settings: PC-3, 72 h
# [4] = Metabolic stability in rat plasma assessed as half life; assay type: ADME, cell-free
# Mus musculus [5] = experiment: Toxicity in nu/nu nude mouse assessed as body weight loss at 100 mg/kg, iv administered as injection in Q2D x 6 schedule; assay type: organism-based; set-up: dose 100 mg/kg, route intravenous; settings: in vivo
# CCRF-CEM [6] = experiment: Selectivity ratio of IC50 for taxol-resistant human CCRF-CEM cells to IC50 for human CCRF-CEM cells; assay type: functional
# MX1 [7] = experiment: Antitumor activity against human MX1 cells xenografted in nu/nu nude mouse assessed as complete tumor remission at 150 mg/kg, iv administered as injection in Q2D x 5 schedule measured on day 16; assay type: functional, organism-based; set-up: dose 150 mg/kg
# [8] = Cytotoxicity against human CL1-0 cells after 72 hrs by alamar blue assay; assay type: functional, cell-based; settings: CL1-0, 72 h
# CCRF-CEM [9] = experiment: Selectivity ratio of IC50 for vinblastine-resistant human CCRF-CEM cells to IC50 for human CCRF-CEM cells; assay type: functional
# MCF7 = experiment: Cytotoxicity against human MCF7 cells after 72 hrs by alamar blue assay; assay type: functional, cell-based; settings: MCF7, 72 h
# NCI/ADR-RES = experiment: Antitumor activity against human MCF7/ADR cells xenografted in nu/nu nude mouse at 100 mg/kg, iv administered as injection in Q2D x 6 schedule; assay type: functional, organism-based; set-up: dose 100 mg/kg
# Mus musculus [10] = experiment: Toxicity in nu/nu nude mouse assessed as body weight loss at 150 mg/kg, iv administered as injection in Q2D x 5 schedule measured on day 16; assay type: organism-based; set-up: dose 150 mg/kg, route intravenous; settings: in vivo
# [11] = Cytotoxicity against human H1299 cells after 72 hrs by alamar blue assay; assay type: functional, cell-based; settings: NCI-H1299, 72 h
# CCRF-CEM [12] = experiment: Cytotoxicity against vinblastine-resistant human CCRF-CEM cells after 72 hrs by XTT assay; assay type: functional, cell-based
# Nucleic Acid [13] = experiment: Binding affinity to pEGFP-N1 DNA assessed as formation of interstrand cross-links with DNA by alkaline gel shift assay; assay type: nucleic-acid assay
# Nucleic Acid [14] = experiment: Binding affinity to DNA in human H1299 cells assessed as formation of DNA cross-links after irradiation by modified single cell gel electrophoresis comet assay; assay type: cell-based
# MX1 [15] = experiment: Antitumor activity against human MX1 cells xenografted in nu/nu nude mouse assessed as complete tumor remission at 150 mg/kg, iv administered as injection in Q2D x 5 schedule measured on day 70; assay type: functional, organism-based; set-up: dose 150 mg/kg
# CCRF-CEM [16] = experiment: Cytotoxicity against human CCRF-CEM cells after 72 hrs by XTT assay; assay type: functional, cell-based
# MX1 [17] = experiment: Cytotoxicity against human MX1 cells after 72 hrs by SRB assay; assay type: functional, cell-based; settings: MX1, 72 h
# CCRF-CEM [18] = experiment: Cytotoxicity against taxol-resistant human CCRF-CEM cells after 72 hrs by XTT assay; assay type: functional, cell-based
smiles,measurement,setting,value
Cc1cc(NC(=O)Nc2ccc(N(CCCl)CCCl)cc2)c2ccccc2n1,IC50,[1],9.45 µM
same,Activity,Mus musculus [2],Non-toxic
same,Activity,Nucleic Acid [3],31.3%
same,IC50,HCT-116,1420 nM
same,IC50,PC-3,9.52 µM
same,half-life,[4],989 min
same,Activity,Mus musculus [5],Non-toxic
same,Ratio IC50,CCRF-CEM [6],2.2
same,Activity,MX1 [7],Active
same,IC50,[8],9.02 µM
same,Ratio IC50,CCRF-CEM [9],3.4
same,IC50,MCF7,9.08 µM
same,Activity,NCI/ADR-RES,Active
same,Activity,Mus musculus [10],2%
same,IC50,[11],1980 nM
same,IC50,CCRF-CEM [12],664 nM
same,Activity,Nucleic Acid [13],Active
same,Activity,Nucleic Acid [14],Dose-dependent effect
same,Activity,MX1 [15],Active
same,IC50,CCRF-CEM [16],193 nM
same,IC50,MX1 [17],343 nM
same,IC50,CCRF-CEM [18],429 nM
